# Values quoted from earlier work, collected in paper PMC6222850, “^66Ga: A Novelty or a Valuable Preclinical Screening Tool for the Design of Targeted Radiopharmaceuticals?” (Molecules : A Journal of Synthetic Chemistry and Natural …, 2018).
# Tested on: LNCaP tumors
# Set-up: method as in PMID 29623376
structure (smiles),measurement,value
O=C(O)CC[C@H](NC(=O)N[C@@H](CCCCNC(=O)[C@H](Cc1ccc2ccccc2c1)NC(=O)[C@H]1CC[C@H](CNC(=O)CN2CCN(CC(=O)O)CCN(CC(=O)O)CCN(CC(=O)O)CC2)CC1)C(=O)O)C(=O)O [PSMA-617],Clearance from blood,fast clearance from blood
